According to patent US7056884B2, “Reduced FK228 and use thereof” (Astellas Pharma Inc., priority 2000, dated 2006):

Test system: Mouse histone deacetylase
Experiment: Assay of histone deacetylase activity ([3H] acetylated histone, crude histone deacetylase from FM3A cells)
Format: biochemical
Details: crude histone deacetylase fraction from FM3A cells, [3H] acetylated histone substrate, 37° C. for 10 min
Method: The histone deacetylase inhibitory activity of the FR135313 substance synthesized in Production Example 1 was examined.
Mouse breast cancer FM3A was supplied by Dr. Dai Ayusawa of Medical Department, Yokohama City University. This cell was subcultured in an ES medium containing 2% FBS (Flow Laboratories, hereinafter to be referred to as ES medium) at 37° C., in 5% CO2.
The [^3H] acetylated histone to be the substrate of histone deacetylase was prepared by culturing 1×10^8 cells of FM3A cell (suspended in 50 ml of ES medium) in the presence of 0.5 mCi/ml [^3H] sodium acetate and 5 mM sodium butyrate at 37° C. in 5% CO2 for 30 min, and immediately extracting histone fraction from the treated cells according to the following method. The specific radioactivity was 0.45 μCi/mg histone.
Extraction of histone protein from culture cell was conducted according to the method of Yoshida et al. (M. Yoshida et al., J. Biol. Chem. 265, 17174–17179 (1990)). […]
4 μl of [^3H] acetylated histone (2500 cpm/5 μg) and 96 μl of crude histone deacetylase fraction were admixed. […] The reaction was terminated by the addition of 10 μl of concentrated hydrochloric acid, and released [^3H] acetic acid was extracted with 1 ml of ethyl acetate, from which 0.9 ml was added to 5 ml of toluene scintillation solution and the radioactivity was measured.

## C/C=C1\NC(=O)[C@@H](CS)NC(=O)[C@@H](C(C)C)NC(=O)C[C@@H](/C=C/CCS)OC(=O)[C@H](C(C)C)NC1=O [FR135313 substance]
  histone deacetylase inhibitory activity IC50: not more than 1 ng/ml
